# Values of other authors in publication PMC5559489 (Scientific Reports, 2017).
# Columns and labels:
# [1] = system: A(H1N1)pdm09 isolates containing NA H275Y and I223R; conditions: cited from earlier work
# [2] = system: A(H1N1)pdm2009 clinical isolates with H275Y mutation; conditions: cited from earlier work
smiles,measurement,setting,value
"CCOC(=O)C1=C[C@@H](OC(CC)CC)[C@H](NC(C)=O)[C@@H](N)C1 [oseltamivir, Oseltamivir]",decreased susceptibility to oseltamivir,[1],246 fold
same,decrease of sensitivity compared to wild-type,[2],1466 fold
